SMILES strings stand for the structures.

The target in the test is factor B (Homo sapiens, UniProt P00751). Description: factor B inhibition assay of Biological Example 1. Type of test: biochemical. Set-up: CVF-Bb complex prepared from purified cobra venom factor (1 μM), recombinant human complement factor B; made in house; host or cells: drosophila cells (factor B); E. coli (factor D used to form the complex). To be noted: assay of Biological Example 1 (Table 1).
Chain of factor B (P00751 260-764 limits assumed): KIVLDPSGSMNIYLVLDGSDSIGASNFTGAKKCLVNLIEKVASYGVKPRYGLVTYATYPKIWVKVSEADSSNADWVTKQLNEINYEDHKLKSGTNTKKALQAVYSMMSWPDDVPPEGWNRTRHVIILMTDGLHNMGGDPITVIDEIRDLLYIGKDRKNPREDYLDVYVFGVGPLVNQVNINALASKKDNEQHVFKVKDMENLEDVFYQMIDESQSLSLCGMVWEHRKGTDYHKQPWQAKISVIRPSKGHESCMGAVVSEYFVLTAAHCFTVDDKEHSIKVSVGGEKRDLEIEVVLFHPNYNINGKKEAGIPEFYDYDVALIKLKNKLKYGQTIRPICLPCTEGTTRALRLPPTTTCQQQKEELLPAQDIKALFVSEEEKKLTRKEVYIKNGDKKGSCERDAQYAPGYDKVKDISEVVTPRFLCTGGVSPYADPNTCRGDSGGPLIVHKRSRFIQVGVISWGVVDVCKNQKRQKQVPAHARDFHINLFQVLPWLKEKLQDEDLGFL
Chain of factor B (Q91132 23-649 partner limits assumed): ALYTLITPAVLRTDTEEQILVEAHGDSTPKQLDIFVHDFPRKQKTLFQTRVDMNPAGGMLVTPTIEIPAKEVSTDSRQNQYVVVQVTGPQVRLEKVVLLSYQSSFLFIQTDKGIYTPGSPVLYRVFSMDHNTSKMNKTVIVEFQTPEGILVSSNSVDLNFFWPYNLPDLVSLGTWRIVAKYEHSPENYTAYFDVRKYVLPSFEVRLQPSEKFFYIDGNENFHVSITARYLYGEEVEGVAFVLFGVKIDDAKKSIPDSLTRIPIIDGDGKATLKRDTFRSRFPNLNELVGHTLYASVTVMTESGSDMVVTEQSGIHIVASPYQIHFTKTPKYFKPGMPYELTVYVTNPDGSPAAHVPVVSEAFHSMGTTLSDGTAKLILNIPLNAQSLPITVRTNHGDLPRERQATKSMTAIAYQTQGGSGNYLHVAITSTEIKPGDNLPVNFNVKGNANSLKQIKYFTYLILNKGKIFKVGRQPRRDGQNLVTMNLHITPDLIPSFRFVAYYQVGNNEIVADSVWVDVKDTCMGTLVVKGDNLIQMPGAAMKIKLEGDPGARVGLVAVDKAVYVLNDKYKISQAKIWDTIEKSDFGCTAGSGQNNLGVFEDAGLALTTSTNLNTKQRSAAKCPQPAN
Chain of factor B (Q91132 733-984 partner limits assumed): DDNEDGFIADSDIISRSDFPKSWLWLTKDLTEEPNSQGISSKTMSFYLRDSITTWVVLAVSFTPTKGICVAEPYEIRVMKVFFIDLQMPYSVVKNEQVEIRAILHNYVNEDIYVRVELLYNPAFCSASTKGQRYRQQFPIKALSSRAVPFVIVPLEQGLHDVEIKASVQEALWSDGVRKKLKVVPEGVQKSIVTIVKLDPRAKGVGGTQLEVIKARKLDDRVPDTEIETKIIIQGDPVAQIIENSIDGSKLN
Chain of factor B (Q91132 1264-1642 partner limits assumed): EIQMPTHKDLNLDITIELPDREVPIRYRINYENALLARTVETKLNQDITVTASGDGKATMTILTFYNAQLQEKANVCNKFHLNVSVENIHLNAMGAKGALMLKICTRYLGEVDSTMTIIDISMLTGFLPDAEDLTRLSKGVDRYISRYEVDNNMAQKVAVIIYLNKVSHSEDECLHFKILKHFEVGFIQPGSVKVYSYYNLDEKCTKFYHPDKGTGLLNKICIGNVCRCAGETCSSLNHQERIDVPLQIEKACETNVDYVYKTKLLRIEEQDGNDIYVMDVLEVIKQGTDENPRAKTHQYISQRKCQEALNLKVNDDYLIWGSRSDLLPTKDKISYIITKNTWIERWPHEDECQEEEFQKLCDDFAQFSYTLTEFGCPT

A word on the IC50: it is the point on the concentration scale where inhibition reaches its midpoint. Turning to `COC(c1nc2cc(C#N)ccc2[nH]1)(c1c(S(C)(=O)=O)cc(C)c2[nH]ccc12)C(F)(F)F` (single isomer, unassigned; (+)) [15-D b) (+), (+)-2-(2,2,2-trifluoro-1-methoxy-1-(7-methyl-5-(methylsulfonyl)-1H-indol-4-yl)ethyl)-1H-benzo[d]imidazole-5-carbonitrile], the IC50 (IC50 (nM)) was determined as 32700 nM.
Same read-out and setting: for `CNC(c1nc2cc(C#N)ccc2[nH]1)(c1c(S(C)(=O)=O)cc(C)c2[nH]ccc12)C(F)(F)F` (single isomer, unassigned; (+)) [16-B b) (+), (+)-2-(2,2,2-trifluoro-1-(7-methyl-5-(methylsulfonyl)-1H-indol-4-yl)-1-(methylamino)ethyl)-1H-benzo[d]imidazole-5-carbonitrile] the value was 4740 nM.
On the same count and under the same terms, for `Cc1cc(S(C)(=O)=O)c(C(N)(c2nc3cc(C#N)ccc3[nH]2)C(F)(F)F)c2cc[nH]c12` (single isomer, unassigned; (+)) [17-B b) (+), (+)-2-(1-amino-2,2,2-trifluoro-1-(7-methyl-5-(methylsulfonyl)-1H-indol-4-yl)ethyl)-1H-benzo[d]imidazole-5-carbonitrile] the value was 6860 nM.
On the same count and under the same terms, for `COc1cc(C)c2[nH]ccc2c1C(O)c1nc2cc(C#N)ccc2[nH]1` (single isomer, unassigned; (+)) [24-B b) (+), (+)-2-(hydroxy(5-methoxy-7-methyl-1H-indol-4-yl)methyl)-1H-benzo[d]imidazole-5-carbonitrile] the value was 370 nM; for `CCOc1cc(C)c2[nH]ccc2c1C(O)c1nc2cc(C#N)ccc2[nH]1` (single isomer, unassigned; (+)) [24-C b) (+), (+)-2-((5-ethoxy-7-methyl-1H-indol-4-yl)(hydroxy)methyl)-1H-benzo[d]imidazole-5-carbonitrile], 6050 nM.
Take `Cc1cc(OC(C)C)c(C(O)c2nc3cc(C#N)ccc3[nH]2)c2cc[nH]c12` (single isomer, unassigned; (+)) [24-D b) (+), (+)-2-(hydroxy(5-isopropoxy-7-methyl-1H-indol-4-yl)methyl)-1H-benzo[d]imidazole-5-carbonitrile]: the 50% inhibitory concentration (IC50) (IC50 (nM)) turned out to be 1980 nM.
Same read-out and setting: the figure for `CCOc1cc(C)c2[nH]ccc2c1C(C)(O)c1nc2cc(C#N)ccc2[nH]1` (single isomer, unassigned; (+)) [26-D b) (+), (+)-2-(1-(5-ethoxy-7-methyl-1H-indol-4-yl)-1-hydroxyethyl)-1H-benzo[d]imidazole-5-carbonitrile] is 360 nM.
Turning to `Cc1cc(OC(C)C)c(C(C)(O)c2nc3cc(C#N)ccc3[nH]2)c2cc[nH]c12` (single isomer, unassigned; (+)) [26-E b) (+), (+)-2-(1-hydroxy-1-(5-isopropoxy-7-methyl-1H-indol-4-yl)ethyl)-1H-benzo[d]imidazole-5-carbonitrile], the 50% inhibitory concentration (IC50) came out at 170 nM.
As to `CCC(O)(c1nc2cc(C#N)ccc2[nH]1)c1c(OC(C)C)cc(C)c2[nH]ccc12` (single isomer, unassigned; (+)) [26-F b) (+), (+)-2-(1-hydroxy-1-(5-isopropoxy-7-methyl-1H-indol-4-yl)propyl)-1H-benzo[d]imidazole-5-carbonitrile], the IC50 (IC50 (nM)) is 230 nM.
For `Cc1cc(OCC2CC2)c(C(C)(O)c2nc3cc(C#N)ccc3[nH]2)c2cc[nH]c12` (single isomer, unassigned; (+)) [26-G b) (+), (+)-2-(1-(5-(cyclopropylmethoxy)-7-methyl-1H-indol-4-yl)-1-hydroxyethyl)-1H-benzo[d]imidazole-5-carbonitrile], under “IC50 (nM)”, the IC50 is 4950 nM.
Still for that read-out and setting: for `COc1cc(C)c2[nH]ccc2c1C(C)(OC)c1nc2cc(C#N)ccc2[nH]1` (single isomer, unassigned; (+)) [27-B b) (+), (+)-2-(1-methoxy-1-(5-methoxy-7-methyl-1H-indol-4-yl)ethyl)-1H-benzo[d]imidazole-5-carbonitrile] the value was 60 nM; for `[2H]C([2H])([2H])C(OC)(c1nc2cc(C#N)ccc2[nH]1)c1c(OC)cc(C)c2[nH]ccc12` (single isomer, unassigned; (+)) [27-E b) (+), (+)-2-((^2H3)methyl(methoxy)(5-methoxy-7-methyl-1H-indol-4-yl)methyl)-1H-benzo[d]imidazole-5-carbonitrile], 90 nM.
`COc1cc(C)c2[nH]cc(Cl)c2c1C(O)c1nc2cc(C#N)ccc2[nH]1` (single isomer, unassigned; (+)) [28-C b) (+), (+)-2-((3-chloro-5-methoxy-7-methyl-1H-indol-4-yl)(hydroxy)methyl)-1H-benzo[d]imidazole-5-carbonitrile]: the IC50 (IC50 (nM)) turned out to be 53900 nM.
Regarding `COc1cc(C)c2[nH]ccc2c1C(O)(c1nc2cc(C#N)ccc2[nH]1)C(F)(F)F` (single isomer, unassigned; (+)) [33-B b) (+), (+)-2-(2,2,2-trifluoro-1-hydroxy-1-(5-methoxy-7-methyl-1H-indol-4-yl)ethyl)-1H-benzo[d]imidazole-5-carbonitrile], the IC50 (IC50 (nM)) was 430 nM.
For the compound `COc1cc(C)c2[nH]ccc2c1C(OC)(c1nc2cc(C#N)ccc2[nH]1)C(F)(F)F` (single isomer, unassigned; (+)) [34-B b) (+), (+)-2-(2,2,2-trifluoro-1-methoxy-1-(5-methoxy-7-methyl-1H-indol-4-yl)ethyl)-1H-benzo[d]imidazole-5-carbonitrile], the half-maximal inhibitory concentration (IC50) (IC50 (nM)) is 50 nM.
On the same count and under the same terms, for `COc1cc(C)c2[nH]ccc2c1C(OCC(=O)O)(c1nc2cc(C#N)ccc2[nH]1)C(F)(F)F` (single isomer, unassigned; (+)) [35-C (+), (+)-2-(1-(5-cyano-1H-benzo[d]imidazol-2-yl)-2,2,2-trifluoro-1-(5-methoxy-7-methyl-1H-indol-4-yl)ethoxy)acetic acid] the value was 4870 nM; for `CNC(c1nc2cc(C#N)ccc2[nH]1)(c1c(OC)cc(C)c2[nH]ccc12)C(F)(F)F` (single isomer, unassigned; (+)) [38-B b) (+), (+)-2-(2,2,2-trifluoro-1-(5-methoxy-7-methyl-1H-indol-4-yl)-1-(methylamino)ethyl)-1H-benzo[d]imidazole-5-carbonitrile], 140 nM.
Same read-out and setting: the figure for `COc1cc(C)c2[nH]ccc2c1C(C)(N)c1nc2cc(C#N)ccc2[nH]1` (single isomer, unassigned; (+)) [41-B b) (+), (+)-2-(1-amino-1-(5-methoxy-7-methyl-1H-indol-4-yl)ethyl)-1H-benzo[d]imidazole-5-carbonitrile] is 190 nM; for `CNC(C)(c1nc2cc(C#N)ccc2[nH]1)c1c(OC)cc(C)c2[nH]ccc12` (single isomer, unassigned; (+)) [42-D b) (+), (+)-2-(1-(5-methoxy-7-methyl-1H-indol-4-yl)-1-(methylamino)ethyl)-1H-benzo[d]imidazole-5-carbonitrile] it is 130 nM; for `Cc1cc(C)c2[nH]ccc2c1C(O)c1nc2cc(C#N)ccc2[nH]1` (single isomer, unassigned; (+)) [64-C b) (+), (+)-2-((5,7-dimethyl-1H-indol-4-yl)(hydroxy)methyl)benzo[d]imidazole-5-carbonitrile] it is 340 nM.
The same measure, in the same setting: the figure for `Cc1cc(CO)c(C(O)c2nc3cc(C#N)ccc3[nH]2)c2cc[nH]c12` (single isomer, unassigned; (+)) [65-D b) (+), (+)-2-(hydroxy(5-(hydroxymethyl)-7-methyl-1H-indol-4-yl)methyl)-1H-benzo[d]imidazole-5-carbonitrile] is 6200 nM.
Regarding `CCOCc1cc(C)c2[nH]ccc2c1C(O)c1nc2cc(C#N)ccc2[nH]1` (single isomer, unassigned; (+)) [66-D b) (+), (+)-2-((5-(ethoxymethyl)-7-methyl-1H-indol-4-yl)(hydroxy)methyl)-1H-benzo[d]imidazole-5-carbonitrile], under “IC50 (nM)”, the IC50 was 30400 nM.
The same measure, in the same setting: the figure for `CCc1cc(C)c2[nH]ccc2c1C(O)c1nc2cc(C#N)ccc2[nH]1` (single isomer, unassigned; (+)) [67-A b) (+), (+)-2-((5-ethyl-7-methyl-1H-indol-4-yl)(hydroxy)methyl)-1H-benzo[d]imidazole-5-carbonitrile] is 1160 nM; for `Cc1cc(CC(C)C)c(C(O)c2nc3cc(C#N)ccc3[nH]2)c2cc[nH]c12` (single isomer, unassigned; (+)) [67-C b) (+), (+)-2-(hydroxy(5-(isobutyl)-7-methyl-1H-indol-4-yl)methyl)-1H-benzo[d]imidazole-5-carbonitrile] it is 8770 nM.
On the same count and under the same terms, the figure for `Cc1cc(C(C)C)c(C(O)c2nc3cc(C#N)ccc3[nH]2)c2cc[nH]c12` (single isomer, unassigned; (+)) [67-D b) (+), (+)-2-(hydroxy(5-isopropyl-7-methyl-1H-indol-4-yl)methyl)-1H-benzo[d]imidazole-5-carbonitrile] is 3220 nM; for `Cc1cc(Cl)c(C(O)c2nc3cc(C#N)ccc3[nH]2)c2cc[nH]c12` (single isomer, unassigned; (+)) [67-E b) (+), (+)-2-((5-chloro-7-methyl-1H-indol-4-yl)(hydroxy)methyl)-1H-benzo[d]imidazole-5-carbonitrile] it is 2080 nM.
On the same count and under the same terms, the figure for `Cc1cc(C)c2[nH]ccc2c1C(O)c1nc2c(C)c(C#N)ccc2[nH]1` (single isomer, unassigned; (+)) [67-G b) (+), (+)-2-((5,7-dimethyl-1H-indol-4-yl)(hydroxy)methyl)-4-methyl-1H-benzo[d]imidazole-5-carbonitrile] is 2980 nM; for `CCc1cc(C)c2[nH]ccc2c1C(OC)c1nc2cc(C#N)ccc2[nH]1` (single isomer, unassigned; (+)) [70-D b) (+), (+)-2-((5-ethyl-7-methyl-1H-indol-4-yl)(methoxy)methyl)-1H-benzo[d]imidazole-5-carbonitrile] it is 950 nM.
For the compound `COC(c1nc2cc(C#N)ccc2[nH]1)c1c(CC(C)C)cc(C)c2[nH]ccc12` (single isomer, unassigned; (+)) [71 b) (+), (+)-2-((5-isobutyl-7-methyl-1H-indol-4-yl)(methoxy)methyl)-1H-benzo[d]imidazole-5-carbonitrile], under “IC50 (nM)”, the IC50 stood at 4550 nM.

The values above are taken from patent US9056874B2, “Complement pathway modulators and uses thereof” (NOVARTIS AG, priority 2012, dated 2015).
